# Assay results published in US9248928B2, “Methods of manufacturing contact lenses for delivery of beneficial agents” (CooperVision International Holding Company, LP, priority 2012, dated 2016).
# Structures can show the parent of a compound that is named as a salt. Where two headings read alike, the source gives them in different places.
# Assays:
# [1] = for % of the epinastine taken up by the lens that released (extracted): PBS
# Protocol: (§1) As used herein, a cationic agent is considered to be autoclave-stable in a given package and packaging solution if there is less than 2% degradation of the cationic agent after it is autoclaved two times in its intended package and packaging solution without a lens present, wherein the autoclave conditions used are 120° C. for 30 minutes at about 17 psi. A reference to 2× or 3× autoclave of a package is intended to include a step of allowing the package to cool to room temperature before and after the 2nd, and if applicable, 3rd autoclave treatments. The amount of degradation is determined using an HPLC method appropriate for the cationic agent being tested. Alternatively or additionally, a cationic agent is considered autoclave-stable in a given packaging solution if the percentage of cationic agent that can be extracted from the lens after 2× autoclave is more than 95% of the percentage of cationic agent that can be extracted from a non-autoclaved lens packaged in the same packaging solution and kept at room temperature for 24 hours, where the extraction method used is substantially as described in Example 4, or an equivalent method. The percentage of cationic agent extracted from the autoclaved (test) and non-autoclaved (control) lenses is determined relative to the amount of cationic agent taken up by the test and control lenses, respectfully. Thus, for example, a control lens may take up 100 μg of a cationic agent from a packaging solution after 24 hours at room temperature and 97 μg (i.e. 97%) of the cationic agent can be extracted from the lens. If the corresponding test (2× autoclaved) lens takes up 120 μg of the cationic agent from the packaging solution, but only 108 μg (i.e. 90%) of the cationic agent is extracted using the same extraction method as for the control lens, then there is considered to be a 7% difference between the amount cationic agent extracted from control and test lenses.
# The packaged lenses were either autoclaved once or twice for 20 minutes at 120° C. and then kept at room temperature overnight, or kept at room temperature overnight without autoclaving. 1.2 ml PBS comprising 200 μg/ml epinastine HCL was autoclaved once or twice in a glass vial without a lens (autoclave control solution).
# Each lens was blotted dry with lint-free paper, and placed in a vial containing 10 ml of an extraction medium consisting of 60 parts of 0.3% triethylamine in deionized (pH adjusted to 4.0 using phosphoric acid) and 40 parts methanol. The vials were sonicated for 30 minutes at room temperature. The lens were removed from the extraction solution and transferred to individual vials containing 5 ml of fresh extraction medium and sonicated again for 30 minutes. For each lens, the extraction media was combined to obtain 15 ml extraction medium for each lens and the amount of epinastine extracted from each lens was measured by HPLC.
# The study was repeated using silicone hydrogel contact lenses prepared according to Example 1 and packaged in TRIS buffer (described above) comprising 150 μg/ml epinastine. The lenses were autoclaved 0-3 times each.
# [2] = Autoclave stability of cationic agents in packaging solution
# Protocol: as §1
# Both εPLL and epinastine have primary amine groups, whereas olopatadine and ketotifen have none. […] TRIS buffer drops in pH with increased temperature, down to a pH of about 4.3 during autoclave. […] Thus, in one example, the packaging solution used in the method of manufacturing the contact lenses described herein is temperature-sensitive. By temperature-sensitive, it is meant that the pH of the packaging solution drops by at least one (e.g a drop from pH 7.5 to pH 6.5) during autoclave at 120° C. for 30 minutes. In specific examples, the pH of the temperature-sensitive packaging solution drops during autoclave by at least 1.5, 2.0, or 2.5. Exemplary temperature-sensitive buffers include {[tris(hydroxymethyl)methyl]amino}propanesulfonic acid (TAPS), N,N-bis(21-hydroxyethyl)glycine (Bicine), tris(hycroxymethyl)methylamine (TRIS), N-tris(hydroxymethyl)methylglycine (Tricine), {[tris(hydroxymethyl)methyl]amino}ethanesulfonic acid (TES), 3-(N-morpholino)propanesulfonic acid (MOPS), and the like. […] In one such example, the packaging solution comprises a TRIS buffer. In a further example, the cationic agent comprises a primary amine. In yet a further example, the cationic agent is epinastine or εPLL and the packaging solution comprises a TRIS buffer.
# [3] = Autoclave stability of εPLL in PBS or TRIS buffered saline by HPLC; assay type: physicochemical; conditions: 500 ppm εPLL, no lens
# Protocol: […] The samples were tested by HPLC at a sufficient resolution to achieve a discernable peak for each molecular weight fraction of the εPLL.
# [4] = Autoclave # 0, silicone hydrogel lens, TRIS buffer with 150 μg/ml epinastine
# [5] = Autoclave # 1x, silicone hydrogel lens, TRIS buffer with 150 μg/ml epinastine
# [6] = Autoclave # 2x, silicone hydrogel lens, TRIS buffer with 150 μg/ml epinastine
# [7] = Autoclave # 3x, silicone hydrogel lens, TRIS buffer with 150 μg/ml epinastine
# [8] = Ocufilcon D lens, Autoclaved, PBS with 200 μg/ml epinastine HCl
# [9] = Ocufilcon D lens, Non-Autoclaved, PBS with 200 μg/ml epinastine HCl
# [10] = Silicone hydrogel lens (2x autoclave), PBS with 200 μg/ml epinastine HCl
# [11] = Silicone hydrogel lens, Autoclaved, PBS with 200 μg/ml epinastine HCl
# [12] = Silicone hydrogel lens, Non-Autoclaved, PBS with 200 μg/ml epinastine HCl
# [13] = TBS, 9 autoclaves (so in the source)
molecule,measurement,setting,value
NC1=NCC2c3ccccc3Cc3ccccc3N12 (stereo not drawn) [epinastine],% Δ,[1]; [4],0.2%
same,Extracted Amt.,[1]; [4],148.1 µg
same,Δ,[1]; [4],0.3 µg
same,% Δ,[1]; [5],1.3%
same,Extracted Amt.,[1]; [5],148.6 µg
same,Δ,[1]; [5],1.9 µg
same,% Δ,[1]; [6],1.3%
same,Extracted Amt.,[1]; [6],145.4 µg
same,Δ,[1]; [6],1.9 µg
same,% Δ,[1]; [7],3.0%
same,Extracted Amt.,[1]; [7],85.9 µg
same,Δ,[1]; [7],2.6 µg
same,% Δ,[1]; [8],7%
same,Extr. Amt.,[1]; [8],240.4 µg
same,Δ (uptake minus extracted),[1]; [8],18.5 µg
same,% Δ,[1]; [9],2%
same,Extr. Amt.,[1]; [9],243.5 µg
same,Δ (uptake minus extracted),[1]; [9],5.6 µg
same,% Δ,[1]; [10],18%
same,Extr. Amt.,[1]; [10],163.4 µg
same,Δ (uptake minus extracted),[1]; [10],36.3 µg
same,% Δ,[1]; [11],10%
same,Extr. Amt.,[1]; [11],184.5 µg
same,Δ (uptake minus extracted),[1]; [11],20.1 µg
same,% Δ,[1]; [12],1%
same,Extr. Amt.,[1]; [12],181.7 µg
same,Δ (uptake minus extracted),[1]; [12],1.3 µg
same,% of the epinastine taken up by the lens that released (extracted),[1]; autoclaved ocufilcon D lens,about 93%
same,% of the epinastine taken up by the lens that released (extracted),[1]; autoclaved silicone hydrogel lens,~90%
same,% of the epinastine taken up by the lens that released (extracted),[1]; non-autoclaved control ocufilcon D lens,98%
same,% of the epinastine taken up by the lens that released (extracted),[1]; non-autoclaved control silicone hydrogel lens,99%
same,% of the epinastine taken up by the lens that released (extracted),[1]; silicone hydrogel lens autoclaved a second time,about 82%
same,autoclave stability,[2]; in PBS,not autoclave-stable
same,autoclave stability,[2]; in TRIS buffer,autoclave-stable
CN1CCC(=C2c3ccccc3CC(=O)c3sccc32)CC1 [ketotifen fumarate],autoclave stability,[2],autoclave-stable
CN(C)CC/C=C1/c2ccccc2COc2ccc(CC(=O)O)cc21 [olopatadine HCl],autoclave stability,[2],autoclave-stable
epsilon poly-1-lysine [εPLL],Total # peaks,"[3]; PBS, 0 autoclaves",23
same,Total peak area,"[3]; PBS, 0 autoclaves",16005557
same,% Area (relative to non-autoclaved),"[3]; PBS, 2 autoclaves",91%
same,Total # peaks,"[3]; PBS, 2 autoclaves",28
same,Total peak area,"[3]; PBS, 2 autoclaves",14566887
same,% Area (relative to non-autoclaved),"[3]; PBS, 4 autoclaves",90%
same,Total # peaks,"[3]; PBS, 4 autoclaves",28
same,Total peak area,"[3]; PBS, 4 autoclaves",14468122
same,% Area (relative to non-autoclaved),"[3]; TBS, 2 autoclaves",99%
same,Total # peaks,"[3]; TBS, 2 autoclaves",27
same,Total peak area,"[3]; TBS, 2 autoclaves",14636372
same,% Area (relative to non-autoclaved),"[3]; TBS, 4 autoclaves",98%
same,Total # peaks,"[3]; TBS, 4 autoclaves",27
same,Total peak area,"[3]; TBS, 4 autoclaves",14476291
same,Total # peaks,[3]; [13],23
same,Total peak area,[3]; [13],14800289
same,autoclave stability,[2]; in PBS,not autoclave-stable
same,autoclave stability,[2]; in TRIS buffer,autoclave-stable
